Source: patent US6727076B2 (priority 1995, dated 2004)

Columns and labels:
[1] = tested on: E. coli strain 14443 (MG1655 (FB426)); type: cell-based; further: key: '+' indicates that the organism tested was capable of utilizing the carbon source listed; '−' indicates that the organism tested was not capable of utilizing the carbon source listed; 'w' indicates weak positive reactions
[2] = tested on: E. coli strain 14444 (MG1655 xylA); type: cell-based
[3] = tested on: E. coli strain 14445 (MG1655 himA); type: cell-based
[4] = tested on: E. coli strain 6320 (W3110); type: cell-based; further: key: '+' indicates that the organism tested was capable of utilizing the carbon source listed; '−' indicates that the organism tested was not capable of utilizing the carbon source listed; 'w' indicates weak positive reactions
[5] = tested on: E. coli strain 6321 (MG1655); type: cell-based; further: key: '+' indicates that the organism tested was capable of utilizing the carbon source listed; '−' indicates that the organism tested was not capable of utilizing the carbon source listed; 'w' indicates weak positive reactions
[6] = tested on: E. coli strain 6322 (EMG2 (K12, λF+)); type: cell-based; further: key: '+' indicates that the organism tested was capable of utilizing the carbon source listed; '−' indicates that the organism tested was not capable of utilizing the carbon source listed; 'w' indicates weak positive reactions
[7] = tested on: E. coli strain 11547 (O157:H7); type: cell-based
[8] = tested on: E. coli strain 13671 (O157:H? gur+); type: cell-based
[9] = tested on: E. coli strain 13673 (O157); type: cell-based
[10] = tested on: E. coli strain 13675 (O157); type: cell-based
[11] = tested on: E. coli 287 (ATCC #11775); type: cell-based
[12] = tested on: T. harzianum DAOM 190830; type: cell-based, Trichoderma harzianum
[13] = tested on: E. coli MG1655; type: cell-based
[14] = tested on: E. coli; type: cell-based
[15] = tested on: E. coli MG1655; type: cell-based; remark: listed apart in the source

COC1OC(CO)C(O)C(O)C1O (stereo not drawn) [β-methyl glucoside]
+: carbon source utilization [1] | carbon source utilization [2] | carbon source utilization [3] | carbon source utilization [4] | carbon source utilization [5] | carbon source utilization [6] | carbon source utilization [7] | carbon source utilization [8] | carbon source utilization [9] | carbon source utilization [10]
positive: carbon source utilization result [11] | carbon source utilization result [12]

N[C@H](CO)C(=O)O [D-serine]
positive: carbon source utilization result [11]
not suitable: suitability as nitrogen source (growth, purple color) [13]
can use: use as carbon source [14]

C[C@H](O)[C@@H](N)C(=O)O [D-threonine]
can use: use as carbon source [14]

Maltotriose
−: carbon source utilization [2] | carbon source utilization [3]
+: carbon source utilization [1] | carbon source utilization [4] | carbon source utilization [5] | carbon source utilization [6] | carbon source utilization [7] | carbon source utilization [8] | carbon source utilization [9] | carbon source utilization [10]
negative: carbon source utilization, in words [2] | carbon source utilization, in words [3]

C[C@H](O)C(=O)O [L-lactic acid]
+: carbon source utilization [1] | carbon source utilization [2] | carbon source utilization [3] | carbon source utilization [4] | carbon source utilization [5] | carbon source utilization [6] | carbon source utilization [7] | carbon source utilization [8] | carbon source utilization [9] | carbon source utilization [10]

N[C@@H](CO)C(=O)O [L-serine]
positive: carbon source utilization result [11] | carbon source utilization result [12]
not suitable: suitability as nitrogen source (growth, purple color) [13]
can use: use as carbon source [14]

NC(=O)C[C@H](N)C(=O)O [L-asparagine]
can use: use as carbon source [14]
positive: carbon source utilization result [11] | carbon source utilization result [12] | suitability as nitrogen source (growth, purple color) [13]

NCCO [2-amino ethanol]
−: carbon source utilization [1] | carbon source utilization [2] | carbon source utilization [3] | carbon source utilization [4] | carbon source utilization [5] | carbon source utilization [6] | carbon source utilization [7] | carbon source utilization [8] | carbon source utilization [9] | carbon source utilization [10]
positive/negative: carbon source utilization result [11]
not suitable: suitability as nitrogen source (growth, purple color) [13]

OC[C@H]1O[C@H](OCC2O[C@@H](O)[C@H](O)[C@@H](O)[C@@H]2O)[C@H](O)[C@@H](O)[C@H]1O (stereo partly drawn) [D-melibiose]
positive: carbon source utilization result [11] | carbon source utilization result [12]
+: carbon source utilization [1] | carbon source utilization [2] | carbon source utilization [3] | carbon source utilization [4] | carbon source utilization [5] | carbon source utilization [6] | carbon source utilization [7] | carbon source utilization [8] | carbon source utilization [9] | carbon source utilization [10]

O=P(O)(O)OCC(O)CO (racemic) [D,L-α-glycerol phosphate]
positive: carbon source utilization result [11] | suitability as phosphorus source (growth, purple color) [15]
+: carbon source utilization [5] | carbon source utilization [6] | carbon source utilization [7] | carbon source utilization [8] | carbon source utilization [9] | carbon source utilization [10]
−: carbon source utilization [1] | carbon source utilization [2] | carbon source utilization [3] | carbon source utilization [4]

O=P(O)(O)O[C@H]1O[C@H](CO)[C@@H](O)[C@H](O)[C@H]1O [Glucose-1-phosphate]
positive: carbon source utilization result [11] | suitability as phosphorus source (growth, purple color) [15]
+: carbon source utilization [1] | carbon source utilization [2] | carbon source utilization [3] | carbon source utilization [4] | carbon source utilization [5] | carbon source utilization [6] | carbon source utilization [7] | carbon source utilization [8] | carbon source utilization [9] | carbon source utilization [10]

O=C(O)CC(O)C(=O)O (racemic) [D,L-malic acid]
+: carbon source utilization [1] | carbon source utilization [2] | carbon source utilization [3] | carbon source utilization [4] | carbon source utilization [5] | carbon source utilization [6] | carbon source utilization [7] | carbon source utilization [8] | carbon source utilization [9] | carbon source utilization [10]

O=C1O[C@@H]([C@H](O)CO)[C@H](O)[C@H]1O [D-galactonic acid-γ-lactone]
+: carbon source utilization [1] | carbon source utilization [2] | carbon source utilization [3] | carbon source utilization [5] | carbon source utilization [6]
negative: carbon source utilization, in words [7] | carbon source utilization, in words [8] | carbon source utilization, in words [9] | carbon source utilization, in words [10]
positive: carbon source utilization result [11]
−: carbon source utilization [4] | carbon source utilization [7] | carbon source utilization [8] | carbon source utilization [9] | carbon source utilization [10]

OC[C@H]1O[C@H](O[C@H]2O[C@H](CO)[C@@H](O)[C@H](O)[C@H]2O)[C@H](O)[C@@H](O)[C@@H]1O [D-trehalose]
positive: carbon source utilization result [11] | carbon source utilization result [12]
+: carbon source utilization [1] | carbon source utilization [2] | carbon source utilization [3] | carbon source utilization [4] | carbon source utilization [5] | carbon source utilization [6] | carbon source utilization [7] | carbon source utilization [8] | carbon source utilization [9] | carbon source utilization [10]

C[C@@H](N)C(=O)O [D-alanine]
can use: use as carbon source [14]
positive: carbon source utilization result [11] | suitability as nitrogen source (growth, purple color) [13]

N[C@@H](C(=O)O)[C@@H](O)[C@H](O)[C@H](O)CO [D-glucosaminic acid]
−: carbon source utilization [1] | carbon source utilization [2] | carbon source utilization [3] | carbon source utilization [4] | carbon source utilization [5] | carbon source utilization [6] | carbon source utilization [7] | carbon source utilization [8] | carbon source utilization [9] | carbon source utilization [10]
negative: carbon source utilization result [11]

CC(O)CO (centres unmarked) [1,2-propanediol]
−: carbon source utilization [1] | carbon source utilization [2] | carbon source utilization [3] | carbon source utilization [4] | carbon source utilization [5] | carbon source utilization [6] | carbon source utilization [7] | carbon source utilization [8] | carbon source utilization [9] | carbon source utilization [10]

CO[C@H]1O[C@H](CO)[C@H](O)[C@H](O)[C@H]1O [α-methyl galactoside]
+: carbon source utilization [1] | carbon source utilization [2] | carbon source utilization [3] | carbon source utilization [4] | carbon source utilization [5] | carbon source utilization [6] | carbon source utilization [7] | carbon source utilization [8] | carbon source utilization [9] | carbon source utilization [10]

O=C(O)Cc1ccc(O)cc1 [P-hydroxy phenylacetic acid]
−: carbon source utilization [1] | carbon source utilization [2] | carbon source utilization [3] | carbon source utilization [4] | carbon source utilization [5] | carbon source utilization [6] | carbon source utilization [7] | carbon source utilization [8] | carbon source utilization [9] | carbon source utilization [10]
negative: carbon source utilization result [11]

N[C@@H](CC(=O)O)C(=O)O [L-aspartic acid]
can use: use as carbon source [14]
positive: carbon source utilization result [11] | suitability as nitrogen source (growth, purple color) [13]

O=C(O)C[C@H](O)C(=O)O [L-malic acid]
+: carbon source utilization [1] | carbon source utilization [2] | carbon source utilization [3] | carbon source utilization [4] | carbon source utilization [5] | carbon source utilization [6] | carbon source utilization [7] | carbon source utilization [8] | carbon source utilization [9] | carbon source utilization [10]

NC(=O)CC[C@H](N)C(=O)O [L-glutamine]
positive: suitability as nitrogen source (growth, purple color) [13]
can use: use as carbon source [14]

OC[C@@H](O)[C@H](O)[C@H](O)[C@@H](O)CO [Dulcitol]
+: carbon source utilization [5] | carbon source utilization [7] | carbon source utilization [8] | carbon source utilization [10]
−: carbon source utilization [1] | carbon source utilization [2] | carbon source utilization [3] | carbon source utilization [4] | carbon source utilization [6] | carbon source utilization [9]

N[C@H](CC(=O)O)C(=O)O [D-aspartic acid]
can use: use as carbon source [14]
not suitable: suitability as nitrogen source (growth, purple color) [13]
